From PubChem BioAssay AID2744 (NMMLSC, 2010) come the findings set out here.

The source made the active and inactive calls.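 The calls were made as follows: active = fitted half-maximal concentration for changing reporter fluorescence at or below a set limit; inactive = the rest.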

Broadly, the EC50 is the concentration needed to bring the measured effect to its halfway point.

The target in one assay is Citrate synthase, peroxisomal (Saccharomyces cerevisiae (strain ATCC 204508 / S288c)) (UniProt P08679). Put plainly: yeast TOR pathway CIT2-GFP reporter potency – flow cytometry, MLPCN hits, dose response (AID 2744). The settings on record: S. cerevisiae CIT2-GFP strain, 3 h, at 33 µM (top of the series). For orientation: A flow cytometer gives signals particle by particle.
Citrate synthase, peroxisomal (Saccharomyces cerevisiae (strain ATCC 204508 / S288c)), sequence (P08679 whole entry, looked up): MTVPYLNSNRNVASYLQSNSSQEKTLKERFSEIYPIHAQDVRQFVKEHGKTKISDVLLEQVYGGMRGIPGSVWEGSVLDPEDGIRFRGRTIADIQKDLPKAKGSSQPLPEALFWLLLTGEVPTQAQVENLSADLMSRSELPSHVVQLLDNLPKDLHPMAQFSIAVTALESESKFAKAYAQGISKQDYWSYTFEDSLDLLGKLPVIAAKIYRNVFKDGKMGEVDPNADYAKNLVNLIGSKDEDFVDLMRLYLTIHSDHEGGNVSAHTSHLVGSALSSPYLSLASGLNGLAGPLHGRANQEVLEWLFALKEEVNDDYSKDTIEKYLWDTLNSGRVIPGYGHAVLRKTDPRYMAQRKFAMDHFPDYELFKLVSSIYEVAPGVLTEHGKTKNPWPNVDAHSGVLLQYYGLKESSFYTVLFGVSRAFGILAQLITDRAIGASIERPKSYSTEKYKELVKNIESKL
As for `Oc1c(I)cc(I)c2cccnc12`, the “GFP fluorescence, higher = induction” value is “inactive”.
Still for that read-out and setting: for `Cc1cccc(OCCN2CSC(=S)N(C)C2)c1` the value was “inactive”; for `Cn1ncc(S(=O)(=O)Cc2ccccc2)c(Cl)c1=O`, “inactive”; for `O=C(/C=C/Sc1ncn[nH]1)c1ccc(Cl)cc1`, “inactive”.
`CC(=O)SC(C[N+](=O)[O-])c1cn(C(C)=O)c2ccccc12` (stereo unspecified): the “GFP fluorescence, higher = induction” value is “inactive”.
Take `O=C(Nc1nc(-c2ccccn2)cs1)c1cc2ccccc2o1`: the “GFP fluorescence, higher = induction” value is “inactive”.
The same measure, in the same setting: in the case of `O=C1c2ccccc2C(=O)C2OC12` (stereo unspecified) it was “inactive”; in that of `COc1cccc(/C=C2\SC(=S)N(CCCC(=O)Nc3ccc(C(=O)O)cc3)C2=O)c1`, “inactive”; in that of `O=C(Cc1ccc(Cl)cc1)NNC(=S)NC(=O)c1cccs1`, “inactive”.
Turning to `COc1ccccc1-c1nc2s/c(=C\c3cccs3)c(=O)n2n1`, the “GFP fluorescence, higher = induction” value was “inactive”.
Regarding `Cc1ccc(NC(=O)c2ccc(Cl)c(N3C(=O)C=CC3=O)c2)cc1`, the “GFP fluorescence, higher = induction” value was “inactive”.
With `Cc1ccccc1N1C(=O)C(Cl)=C(N2CCN(c3ccccc3)CC2)C1=O`, the “GFP fluorescence, higher = induction” value was “inactive”.
The same measure, in the same setting: for `COc1ccc([N+](=O)[O-])c(S(=O)(=O)c2ccccc2)n1` the value was “inactive”; for `Cc1c(Br)c(=O)oc2c(Br)c(O)c(O)cc12`, “inactive”; for `CC(=O)n1cc(C(C[N+](=O)[O-])SCCN)c2ccccc21` (stereo unspecified), “inactive”.
With `CC(=O)N(C1=C(Cl)C(=O)c2ccccc2C1=O)C1CCCCC1`, the “GFP fluorescence, higher = induction” value was “inactive”.
Same read-out and setting: in the case of `CC(C)CC(=O)NC(=S)Nc1nc(-c2ccccc2)cs1` it was “inactive”; in that of `O=C(OCC(=O)N1CCN(C(=O)c2ccco2)CC1)c1cc(-c2cccc(Br)c2)nc2ccccc12`, “inactive”; in that of `Nc1nc2ncc(CNc3ccc(C(=O)N[C@@H](CCC(=O)O)C(=O)O)cc3)nc2c(=O)[nH]1`, “inactive”.
In the case of `CC(=O)Oc1oc(-c2ccccc2)nc1C=Nc1ccccc1`, the “GFP fluorescence, higher = induction” value is “inactive”.
As to `O=C(NC(=S)Nc1ccc2oc(=O)ccc2c1)c1cccc(Cl)c1`, the “GFP fluorescence, higher = induction” value is “inactive”.
Same read-out and setting: for `CCCc1cc(N2CCN(c3ccccn3)CC2)n2nc(C)c(-c3ccccc3)c2n1` the value was “inactive”; for `CCC(=O)Nc1ccc(NC(=O)c2cc3ccccc3o2)c(OC)c1`, “inactive”.
Take `CCCCCCCCC/C(=N\O)c1ccccn1`: the “GFP fluorescence, higher = induction” value is “inactive”.
As to `Cn1ncc2c(O/N=C(\N)c3ccc(C(C)(C)C)cc3)ncnc21`, the “GFP fluorescence, higher = induction” value was “inactive”.
The same measure, in the same setting: in the case of `Cc1ccccc1N=Nc1ccc(O)c2ncccc12` it was “inactive”; in that of `Cc1ccc(/C=C2\SC(=S)N(Cc3ccccc3)C2=O)o1`, “inactive”; in that of `C/C(=N\NC(=O)c1cccc(Br)c1)c1ccccn1`, “inactive”.
`O=C(NC(=S)NNC(=O)c1ccc(Cl)cc1Cl)c1cccnc1`: the “GFP fluorescence, higher = induction” value was “inactive”.
For the compound `O=C1C(Cl)=C(N2CCN(Cc3ccccc3)CC2)C(=O)N1c1ccccc1`, the “GFP fluorescence, higher = induction” value is “inactive”.
Same read-out and setting: for `Cc1ccc(N2C(=O)C(Cl)=C(Nc3c(C)n(C)n(-c4ccccc4)c3=O)C2=O)cc1` the value was “inactive”.
For `COc1ccccc1[C@@]1(C)ON(c2ccccc2C(F)(F)F)C1=O`, the “GFP fluorescence, higher = induction” value was “inactive”.
The same measure, in the same setting: in the case of `COc1ccc([N+](=O)[O-])c(S(=O)(=O)c2ccc(Cl)cc2)n1` it was “inactive”.
As to `O=C(OCC(=O)N1CCN(C(=O)c2ccco2)CC1)c1cc(-c2ccc(Cl)c(Cl)c2Cl)nc2ccccc12`, the “GFP fluorescence, higher = induction” value was “inactive”.
Still for that read-out and setting: for `O=C(Oc1ccnc2cc(Cl)ccc12)N1CCCCCC1` the value was “inactive”; for `O=[N+]([O-])c1c(Nc2ccccn2)cc(Cl)c2nonc12`, “inactive”; for `Cc1cccc(N=Nc2ccc(O)c3ncccc23)c1`, “inactive”.
The same measure, in the same setting: in the case of `Cc1ccc(C(=O)Sc2cccccc2=O)cc1` it was “inactive”; in that of `CCCCS(=O)(=O)/C=C\C=C/S(=O)(=O)CCCC`, “inactive”; in that of `CC(=O)c1ccc(N2CCN(C(=O)c3ccc(Br)cc3)CC2)c(F)c1`, “inactive”.
On the same count and under the same terms, in the case of `O=C(/C=C/c1cc(Br)ccc1O)c1ccco1` it was “inactive”; in that of `CCOC(=O)CSC1=NC(=O)/C(=C\c2ccc(Cl)cc2)S1`, “inactive”; in that of `Cc1c(NC2=C(Cl)C(=O)N(c3ccccc3)C2=O)c(=O)n(-c2ccccc2)n1C`, “inactive”.
For `O=C(/C=C/c1cccc([N+](=O)[O-])c1)c1ccc([N+](=O)[O-])o1`, the “GFP fluorescence, higher = induction” value is “inactive”.
For `COc1ccc(C(=O)NC(=S)NNC(=O)c2cnccn2)cc1OC`, the “GFP fluorescence, higher = induction” value is “inactive”.
With `Cc1ccc(C(c2cc(Cl)c3cccnc3c2O)N2CCN(C)CC2)cc1` (stereo unspecified), the “GFP fluorescence, higher = induction” value was “inactive”.
Take `CC(C)Oc1ccc(C(=O)/C=C2/C(=O)Nc3ccccc32)cc1`: the “GFP fluorescence, higher = induction” value is “inactive”.
For the compound `O=C1c2ccccc2C(=O)N1OS(=O)(=O)c1ccccc1`, the “GFP fluorescence, higher = induction” value was “inactive”.
On the same count and under the same terms, in the case of `CC1=NNC(=O)/C1=C\c1cn(-c2ccccc2)nc1-c1cccs1` it was “inactive”; in that of `O=C1ON=C(c2ccc(Cl)cc2)/C1=C/c1ccc(O)cc1`, “inactive”; in that of `CCc1sc(C(=O)Nc2nc(-c3ccccn3)cs2)cc1C`, “inactive”.
With `C=C1C(O)[C@@H]2O[C@]3(CC[C@H](/C=C/C(C)[C@@H]4CC(C)=CC5(O[C@H](C[C@@](C)(O)C(=O)O)CCC5O)O4)O3)CC[C@H]2O[C@@H]1C(O)CC(C)[C@H]1OC2(CCCCO2)CCC1C` (stereo partly specified), the “GFP fluorescence, higher = induction” value is “inactive”.
The same measure, in the same setting: in the case of `O=C(c1ccc(Cl)cc1)N1CCN(c2cccc3[nH]ccc23)CC1` it was “inactive”.
The same measure, in the same setting: in the case of `CC(=O)N(C(C)=O)c1ncnc2c1c(-c1ccc(Cl)cc1)nn2C(C)(C)C` it was “inactive”; in that of `Cc1cc(=O)n2c3c(sc2n1)C(=O)N(Cc1ccccc1)C3=O`, “inactive”.
Consider `Cc1ccccc1C(=O)NNC(=S)NC(=O)c1ccc(Cl)cc1Cl`, for which the “GFP fluorescence, higher = induction” value was “inactive”.
For the compound `COc1ccc2c(c1)c1nnc(SC)nc1n2C`, the “GFP fluorescence, higher = induction” value is “inactive”.
Still for that read-out and setting: for `CC1=C/C(=N\OS(=O)(=O)c2ccccc2)C(C(C)C)=CC1=O` the value was “inactive”; for `O=C1C=C(Nc2ccc(Cl)cc2)C(=O)N1c1ccc(Cl)cc1`, “inactive”; for `CN(C)c1ccc(/C=C/c2cc[n+](C)cc2)cc1`, “inactive”.
Same read-out and setting: in the case of `O=C(c1ccc(C(=O)N2CCCc3ccccc32)s1)N1CCCc2ccccc21` it was “inactive”; in that of `C#CCOCCOCCOCCNc1nc(N2CCN(C(=O)CCCCCCCCCCNC(=O)[C@H](CCCCN)n3cc(CCO)nn3)CC2)nc(N2CCN(C(=O)CCCCCCCCCCNC(=O)[C@H](CCCCN)n3cc(C[C@@H](C)CC)nn3)CC2)n1`, “inactive”; in that of `O=C(c1ccc(Cl)c([N+](=O)[O-])c1)N1CCN(c2ccccc2)CC1`, “inactive”.
For `CC1=C(C)/C(=N\OS(=O)(=O)c2ccc(C)cc2)C=CC1=O`, the “GFP fluorescence, higher = induction” value was “inactive”.
For `COc1ccc(C2(C)ON(c3ccccc3C(F)(F)F)C2=O)cc1` (stereo unspecified), the “GFP fluorescence, higher = induction” value is “inactive”.
Turning to `C#CCOCCOCCOCCNc1nc(N2CCN(C(=O)CCCCCCCCCCNC(=O)[C@@H](CCC(=O)O)n3cc(CCCCCN)nn3)CC2)nc(N2CCN(C(=O)CCCCCCCCCCNC(=O)[C@H](CCCCN)n3cc(C[C@@H](C)CC)nn3)CC2)n1`, the “GFP fluorescence, higher = induction” value was “inactive”.
On the same count and under the same terms, in the case of `O=C(OCn1ncc(Br)c(Br)c1=O)c1ccc(F)cc1` it was “inactive”; in that of `O=C1C=C(c2ccccc2)C(=O)N1Nc1ccccc1`, “inactive”; in that of `COc1ccc([C@]2(C(C)C)ON(c3ccccc3C(F)(F)F)C2=O)cc1`, “inactive”.
Consider `CCCCc1ccc(/C=C2/C(=O)ON=C2c2ccccc2)s1`, for which the “GFP fluorescence, higher = induction” value was “inactive”.
Same read-out and setting: for `CCOc1cc(C=C2C(=O)c3ccccc3C2=O)ccc1OCC(=O)Nc1ccc(C)cc1` the value was “inactive”.
Still for that read-out and setting: in the case of `O=C(COc1ccccc1)NNC(=S)NC(=O)c1ccccc1` it was “inactive”; in that of `CN(C)c1ccc(N=Cc2nc(-c3ccccc3)oc2OC(=O)c2ccccc2)cc1`, “inactive”.
Same read-out and setting: for `Cc1sc(/C=C2\C(=O)ON=C2c2ccccc2)cc1Br` the value was “inactive”; for `Cc1cccc(C)c1NC(=O)C(Cl)C(=O)c1ccccc1` (stereo unspecified), “inactive”; for `O=[N+]([O-])c1ccc(Sc2nc3ccccc3o2)c([N+](=O)[O-])c1`, “inactive”.
Turning to `O=C(OCC(=O)N1CCN(C(=O)c2ccco2)CC1)c1cc(-c2ccc(F)cc2)nc2ccccc12`, the “GFP fluorescence, higher = induction” value was “inactive”.
The same measure, in the same setting: for `CCOC(=O)CSC1=NC(=O)/C(=C/c2ccc(Br)cc2)S1` the value was “inactive”.
Same read-out and setting: for `CSc1nnc2c3cc(F)ccc3n(C)c2n1` the value was “inactive”.

Still in this assay, the particulars now being: S. cerevisiae CIT2-GFP strain, flow cytometry fluorescence, 3 h.
For `N/C(=N\OC(=O)c1cc(Br)ccc1Cl)c1ccccn1`, the half-maximal effective concentration (EC50) is 4110 nM.
On to `N/C(Cc1ccc(Cl)cc1)=N\OC(=O)c1cccc2ccccc12`, for which the EC50 was 1350 nM.
